From the supplement of paper PMC5412046 come the findings set out here.

The test system of assay [1] is SB.msgc-1. Briefly: area under the dose-response curve of % viability (trapezoidal, 11 doses) (% viability x log10 concentration); higher = less cytotoxic. As to conditions: SB.msgc-1 (sporadic gastric cancer). In short, it runs like this:
(§1)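 Using a pintool, 23 nL of compound in DMSO was transferred at 11 threefold-diluted concentrations onto patient-derived gastric cancer cells, hereditary or sporadic, plated at 500 cells in 5 μL medium per 1536 well. CellTiter-Glo luminescence was read after 48 h. Each value is viability normalised to DMSO, either at the highest concentration or as trapezoidal area under the curve.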

Assay [2] has as its system SB.mhdgc-1. Described as above. Conditions: SB.mhdgc-1 (hereditary c.1380delA CDH1 gastric cancer). The gist of the method:
as §1

Assay [3] deals with SB.msgc-1. Briefly: viability at highest tested concentration (MAXR) relative to DMSO; higher = less cytotoxic. Conditions: SB.msgc-1 (sporadic gastric cancer). In short, it runs like this:
as §1

Assay [4] relates to SB.mhdgc-1. The description is as above. As to conditions: SB.mhdgc-1 (hereditary c.1380delA CDH1 gastric cancer). The gist of the method:
as §1

On to `CN(C)/[N+]([O-])=N/Oc1cc(ON[N+](=O)N2CCN(C(=O)c3cc(Cc4n[nH]c(=O)c5ccccc45)ccc3F)CC2)c([N+](=O)[O-])cc1[N+](=O)[O-]` [JS-65-103] (top concentration 46.0829 µM), for which the “area under the dose-response curve” value turned out to be 534 in the assay on SB.msgc-1 [1] and 480 in the assay with SB.mhdgc-1 [2]. For the same molecule, the viability was 68.2% with SB.msgc-1 [3] and 5.91% in the assay with SB.mhdgc-1 [4].
In the same order, the values of `CCc1ccc(OCc2ccccc2C(=O)Nc2ccc3nc(C)cc(N)c3c2)cc1` [JTC-801] (top concentration 46.0829 µM) are 475, 416, 3.31% and 4.72%.
Take `O=C(Oc1ccc([N+](=O)[O-])cc1)N1CCC(C(O)(c2ccc3c(c2)OCO3)c2ccc3c(c2)OCO3)CC1` [JZL-184] (top concentration 46.0829 µM): the “area under the dose-response curve” value is 316 with SB.msgc-1 [1] and 469 in the assay with SB.mhdgc-1 [2]. The figures for the viability with SB.msgc-1 [3] and in the assay with SB.mhdgc-1 [4] were 53.1% and 70.2%, respectively.
On the same counts, the results for `O=C(Oc1ccc([N+](=O)[O-])cc1)N1CCN(Cc2cccc(Oc3ccccc3)c2)CC1` [JZL-195] (top concentration 46.0829 µM) are 495, 445, 37.7% and 31.1%.
In the case of `NC(=O)c1cccc(-c2cccc(OC(=O)NC3CCCCC3)c2)c1` [KDS-4103] (top concentration 46.0829 µM), the “area under the dose-response curve” value in the assay with SB.msgc-1 [1] came to 544; in the assay on SB.mhdgc-1 [2], 463. Moreover, the viability with SB.msgc-1 [3] came out at 73.9%; with SB.mhdgc-1 [4], 51.6%.
In the same order, the values of `CCOC(=O)c1c(/C(C#N)=C\N)c2ccc(Cl)c(Cl)c2n1C` [KH-CB19] (top concentration 46.0829 µM) are 531, 416, 96% and 52.1%.
On the same counts, the results for `CC(C)CNc1ccnc(NCc2csc(-c3ccccc3)n2)n1` [KHS101] (top concentration 46.0829 µM) are 449, 438, 34.8% and 10.6%.
On the same counts, the results for `COc1cc2nccc(Oc3ccc(NC(=O)Nc4ccc(F)cc4F)c(F)c3)c2cc1OC` [KI-8751] (top concentration 46.0829 µM) are 484, 490, 57.2% and 26.1%.
With `C[S+](=O)([O-])N(Cc1ccco1)CC(O)Cn1c2ccccc2c2ccccc21` (stereo unspecified) [KL001] (top concentration 46.0829 µM), the “area under the dose-response curve” value is 460 in the assay with SB.msgc-1 [1] and 490 in the assay on SB.mhdgc-1 [2]. Moreover, the figures for the viability in the assay with SB.msgc-1 [3] and in the assay on SB.mhdgc-1 [4] were 51.2% and 68.1%, respectively.
On the same counts, the results for `CN(C(Cc1ccc(O[S+](=O)([O-])c2cccc3cnccc23)cc1)C(=O)N1CCN(c2ccccc2)CC1)[S+](=O)([O-])c1cccc2cnccc12` (stereo unspecified) [KN-62] (top concentration 46.0829 µM) are 459, 374, 54.6% and 36.3%.
In the same order, the values of `CCCNC(=O)Nc1ccc(Oc2ncnc3cc(OC)c(OC)cc23)cc1Cl` [KRN-633] (top concentration 46.0829 µM) are 441, 454, 28.9% and 47%.
Consider `NC(CO)(CO)CCc1ccc(Sc2cccc(OCc3ccccc3)c2)cc1Cl` [KRP 203] (top concentration 46.0829 µM), for which the entries for the “area under the dose-response curve” value with SB.msgc-1 [1] and in the assay on SB.mhdgc-1 [2] were 486 and 453, respectively. Also, the figures for the viability in the assay on SB.msgc-1 [3] and in the assay on SB.mhdgc-1 [4] were 2.25% and 4.12%, respectively.
On the same counts, the results for `O=C/1\C=C(/OC(=C1)/C2=C3SC4=C(SC3=CC=C2)C=CC=C4)N5CCOCC5` [KU-0064] (top concentration 46.0829 µM) are 500, 471, 61.6% and 49.9%.
On the same counts, the results for `O=C(c1ccc(/C=C/c2n[nH]c3ccccc23)cc1)N1CCNCC1` [KW-2449] (top concentration 46.0829 µM) are 517, 497, 77.9% and 23%.
In the same order, the values of `CCc1c(O)cc(O)c(C(=O)c2ccc(OCCN3CCOCC3)c(OC)c2)c1CC(=O)N(CCOC)CCOC` [KW-2478] (top concentration 46.0829 µM) are 397, 405, 48% and 46.4%.
On to `O=C(Cc1ccc(-c2ccc(OCCN3CCOCC3)cc2)cn1)NCc1ccccc1` [KX-01] (top concentration 46.0829 µM), for which the “area under the dose-response curve” value came out at 320 in the assay on SB.msgc-1 [1] and 360 with SB.mhdgc-1 [2]. Further, the viability amounted to 39.1% in the assay with SB.msgc-1 [3] and 44.6% in the assay on SB.mhdgc-1 [4].
On the same counts, the results for `OC1=CC=C(C=C1)\C2=C(O)\C(=O)C3=C(O2)C=C(O)C=C3O` [Kaempferol] (top concentration 46.0829 µM) are 465, 465, 21.6% and 52.4%.
On the same counts, the results for `NC[C@H]1O[C@H](O[C@@H]2[C@H](O)[C@@H](O[C@H]3O[C@H](CO)[C@@H](O)[C@H](N)[C@H]3O)[C@H](N)C[C@@H]2N)[C@H](O)[C@@H](O)[C@@H]1O` [Kanamycin] (top concentration 46.0829 µM) are 513, 562, 98.1% and 107%.
On the same counts, the results for `O=C(O)c1ccccc1C(=O)Nc1ccc(-c2ccccc2)cc1` [Kartogenin] (top concentration 46.0829 µM) are 589, 567, 115% and 114%.

One may read the viability as a read-out of living cells in per cent, often relative to untreated cells.
